# From article PMC4788259 (PLoS Neglected Tropical Diseases, 2016)
# Tested on: E. multilocularis metacestodes
# Assay: PGI assay: phosphoglucose isomerase release from damaged metacestodes
# Assay type: cell-based, Echinococcus multilocularis
# Settings: 10 μM, 5 days, single wells, relative to DB1127 (10 μM)
# Method: The preparation of E. multilocularis metacestode material (strain H95) from intraperitoneally (i.p.) infected BALB/c mice was performed as described earlier. Metacestode vesicles were used for in vitro drug screening when they reached 2 to 4 mm in diameter.
# For screening of the Malaria Box against E. multilocularis metacestodes, the PGI screening assay was applied that measures the release of the enzyme phosphoglucose isomerase (PGI) upon physical impairment of metacestodes. The screening setup was done in 24 well plates as described by Stadelmann et al. For initial screening, each drug was applied at 10 μM to metacestodes in single wells. As a positive control-drug, the dicationic diguanidino compound DB1127 (10 μM) was used and 0.1% DMSO was added as negative control. Metacestodes were cultured in the presence of the compounds for 5 days, after which PGI release was quantified exactly as stated in Stadelmann et al. […] Averages, standard deviations and EC50 values were calculated in Microsoft Excel 2010.
row,SMILES,PGI (% of DB1127 at 10 uM) [%]
1,CCN(CC)CCn1c(=N)n(CC(O)c2ccc(Cl)c(Cl)c2)c2ccccc21.Cl (stereo not shown) [MMV000248],-18.11
2,CCOc1ccc(Nc2c3ccccc3nc3ccccc23)cc1.Cl [MMV000304],38.31
3,Cc1ccc2nc(C)cc(Nc3cccc(C(F)(F)F)c3)c2c1.Cl [MMV000326],7.52
4,Br.CCn1c2c(c(=N)c3c1CCC3)CCCC2 [MMV000340],2.86
5,O=C(O)C(=O)O.Oc1ccc(Br)cc1CN1CCN(Cc2cccc(F)c2)CC1 [MMV000356],-18.68
6,CCOc1ccc2c(c1)CN(Cc1ccc(Cl)cc1)CO2 [MMV000443],-40.44
7,CCCCCn1c(=N)n(CC(O)COc2cccc(C)c2)c2ccccc21.Cl (stereo not shown) [MMV000444],66.85
8,CCCCCCn1c(=N)n(CC(O)COc2cccc(C)c2)c2ccccc21.Cl (stereo not shown) [MMV000445],130.28
9,CN(C)CCCNc1c2ccccc2nc2ccccc12 [MMV000448],-25.46
10,CCOc1cc2c(cc1OCC)C(c1cc(Cl)ccc1O)NCC2 (stereo not shown) [MMV000478],32.45
11,CCOc1cc2c(cc1OCC)C(c1cc(Cl)c(O)c(OCC)c1)NCC2 (stereo not shown) [MMV000481],-21.47
12,CCOc1cc2c(cc1OCC)C(c1cc(C)c(O)c(C)c1)NCC2.Cl (stereo not shown) [MMV000483],-22.26
13,CCN(CC)c1cc(C)c2cc(NC(=O)c3cccc(OC)c3)ccc2n1 [MMV000498],4.05
14,CCCN(CCC)CCCNC(=O)c1cc2c(-c3ccc(OC)c(OC)c3)nn(C)c2s1 [MMV000561],-1.54
15,CCc1ccc(Nc2cc(C)c3ccc(O)cc3n2)cc1.Cl [MMV000570],-6.94
16,COc1ccc(-c2cc(=O)oc3c4c(ccc23)OCN(Cc2ccc(F)cc2)C4)cc1 [MMV000604],3.81
17,COc1ccc(C(O)(CCC(C)C)C(CN2CCOCC2)c2ccc(Cl)cc2)cc1.Cl (stereo not shown) [MMV000617],-8.60
18,CCCCC(O)(c1ccc(Cl)cc1)C(CN1CCOCC1)c1ccc(Cl)cc1.Cl (stereo not shown) [MMV000619],-6.41
19,CC(O)(c1ccc(Cl)cc1)C(CN1CCCCC1)c1ccccc1.Cl (stereo not shown) [MMV000620],-136.22
20,CCCCCCC(O)(c1ccc(F)cc1)C(CN1CCOCC1)c1ccccc1.Cl (stereo not shown) [MMV000621],-30.63
21,CC1CCCCN1CCCNC(=O)c1ccc2c(c1)sc1nc(-c3ccc(F)cc3)cn12 (stereo not shown) [MMV000634],-120.82
22,COc1ccc(NC(=O)C2c3ccccc3C(=O)N(CC(C)C)C2c2cccs2)cc1Cl (stereo not shown) [MMV000642],-45.07
23,COc1ccccc1CNC(=O)C1c2ccccc2C(=O)N(CC(C)C)C1c1cccs1 (stereo not shown) [MMV000648],-8.86
24,CCOc1ccccc1CNC(=O)C1c2ccccc2C(=O)N(CC(C)C)C1c1cccs1 (stereo not shown) [MMV000653],-120.29
25,COc1ccc(NC(=O)C2c3ccccc3C(=O)N(CC(C)C)C2c2cccs2)cc1 (stereo not shown) [MMV000662],-25.19
26,Cc1ccc(C2CC(C(F)(F)F)n3nc(C(=O)N4CCN(C(c5ccccc5)c5ccccc5)CC4)cc3N2)cc1 (stereo not shown) [MMV000699],-1.50
27,CCOC(=O)c1cnc2ccc(OC)cc2c1Nc1ccc(N2CCN(C)CC2)cc1 [MMV000704],8.26

row,SMILES,PGI (% of DB1127 at 10 uM) [%]
1,Cc1ccnc(NC(c2cccc(OCc3ccccc3)c2)c2ccc3cccnc3c2O)c1 (stereo not shown) [MMV000720],-5.36
2,Oc1ccc(-c2nc(-c3ccc4oc5ccc(-c6[nH]c(-c7ccc(O)cc7)nc6-c6ccccc6)cc5c4c3)c(-c3ccccc3)[nH]2)cc1 [MMV000753],-5.15
3,Oc1c(CN2CCN(c3ccccc3F)CC2)cc(Br)c2cccnc12 [MMV000760],-8.56
4,CCCOCc1cc(CN2CCN(c3cccc(Cl)c3)CC2)c(O)c2ncccc12 [MMV000787],45.98
5,CC(C)OCc1cc(CN2CCN(c3cccc(Cl)c3)CC2)c(O)c2ncccc12 [MMV000788],-14.40
6,Cl.OC(CNCc1ccccc1)Cn1c2ccccc2c2ccccc21 (stereo not shown) [MMV000839],-2.41
7,OC(CNC1CCCC1)Cn1c2ccccc2c2ccccc21 (stereo not shown) [MMV000848],6.03
8,Cc1ccc(NC(=O)Nc2cccc(Cl)c2)cc1F [MMV000911],185.05
9,COc1ccc2c(c1OC)C(=O)N1c3ccccc3N=C(c3ccc(C)cc3)CC21 (stereo not shown) [MMV000917],-0.60
10,COc1ccc(Nc2nc(NCc3ccccc3)c3ccccc3n2)cc1 [MMV000963],109.36
11,O=C1CC(O)(C(F)(F)C(F)(F)F)Oc2ccccc21 (stereo not shown) [MMV000972],141.59
12,CN1CCN(c2nc(Nc3ccc(O)cc3)nc3ccccc23)CC1.Cl [MMV000986],-4.90
13,Cc1ccc(Nc2nc(NCCO)c3ccccc3n2)cc1C [MMV001038],16.86
14,OCCNc1nc(Nc2ccc(Cl)c(Cl)c2)nc2ccccc12 [MMV001041],6.70
15,CC(C)c1ccc(CNCC(O)c2ccccc2)cc1.Cl (stereo not shown) [MMV001049],12.43
16,CCOc1cccc2sc(N(Cc3cccnc3)C(=O)C3CCCCC3)nc12 [MMV001230],-26.73
17,COc1ccc2sc(N(Cc3cccnc3)C(=O)c3ccc(C#N)cc3)nc2c1 [MMV001239],-2.38
18,COc1ccc(C)c2sc(N(Cc3cccnc3)C(=O)c3ccc(C#N)cc3)nc12 [MMV001241],-0.13
19,CSc1ccccc1C(=O)Nc1nc(-c2ccccn2)cs1 [MMV001246],-29.53
20,CCCCc1ccc(NS(=O)(=O)c2cc3c4c(c2)CCN4C(=O)CC3)cc1 [MMV001255],-110.46
21,CC1CC(C)CN(C(=O)c2ccc(Cl)cc2Cl)C1 (stereo not shown) [MMV001344],-22.37
22,CCN(CC)CCNc1ccnc2cc(Cl)ccc12 [MMV006087],-37.06
23,CN1CCN(c2ccc(Nc3c4ccccc4nc4ccccc34)cc2)CC1 [MMV006172],2.41
24,O=C(NCc1ccco1)C1CCN(S(=O)(=O)c2ccc(Cl)cc2)CC1 [MMV006188],-16.08
25,Cc1cc(NCCN2CCCCC2)c2ccc3ccccc3c2n1 [MMV006203],-66.37
26,CCOC(=O)c1cnc2c(C)cccc2c1Nc1ccc(C(C)=O)cc1 [MMV006250],-32.91
27,CCc1c(C)c(=N)c2ccccc2n1C.I [MMV006278],-42.72

row,SMILES,PGI (% of DB1127 at 10 uM) [%]
1,CCN(CC)CCNc1ccnc2cc3ccccc3cc12 [MMV006303],-4.34
2,CN(C)c1ccc(C=Cc2nc(=O)c3ccccc3o2)cc1 [MMV006309],24.63
3,O=C1c2ccccc2C2=Nc3ccccc3SC(c3cccc(F)c3)C12 (stereo not shown) [MMV006389],-15.52
4,COc1cc(OC)c(N(C)C(=O)c2cc3c(s2)-c2ccccc2S(=O)(=O)C3)cc1Cl [MMV006427],-47.62
5,Cc1cc(NC(=O)C2c3ccccc3C(=O)N(CC(C)C)C2c2cccs2)no1 (stereo not shown) [MMV006429],-37.87
6,CCCN(CCC)CC(O)COc1ccccc1C(=O)Nc1ccccc1 (stereo not shown) [MMV006455],-26.39
7,CCOC(=O)c1ccc2[nH]c(-c3ccccc3)cc(=O)c2c1 [MMV006457],4.84
8,c1ccc2c(NCCc3c[nH]c4ccccc34)c3ccccc3nc2c1 [MMV006513],41.08
9,CCOc1ccc2nc(C)cc(Nc3ccc(Br)cc3)c2c1 [MMV006522],30.79
10,CCN(CC)CCNc1ncnc2c1[nH]c1ccc(Br)cc12 [MMV006545],-33.20
11,Cc1cc(C)c2c(c1)OCN(Cc1ccccc1Cl)C2 [MMV006558],-21.27
12,Clc1ccc2[nH]c3c(NCCCN4CCOCC4)ncnc3c2c1 [MMV006587],-6.35
13,CCOC(=O)C1=CN(C)C=C(C(=O)OCC)C1c1cc(Br)c(OCC)c(OC)c1 [MMV006656],16.40
14,CN(C)CCNc1cc(-c2ccccc2)nc2ccccc12 [MMV006704],-13.50
15,Cc1cc(N2CCN(C3CCCC3)CC2)n2c(nc3ccccc32)c1C#N [MMV006706],-7.43
16,Cc1cc(=O)oc2c1ccc1oc(C(=O)c3ccccc3)c(C)c12 [MMV006753],-7.57
17,CCOc1c(Br)cc(C2C(C(=O)OC)=CN(C)C=C2C(=O)OC)cc1OC [MMV006764],-0.44
18,COc1cc2cc(C(=O)Nc3ccccc3)c(N)nc2cc1OC [MMV006767],-7.82
19,CC(C)CCNCC(O)Cn1c2ccccc2c2ccccc21.Cl (stereo not shown) [MMV006787],62.04
20,CCCCc1c(C)nc2c(OC)cccc2c1O [MMV006820],1.39
21,COc1ccc(Nc2cc(C)nc(NCc3ccccc3)n2)cc1 [MMV006825],17.48
22,c1ccc2cc3c(Nc4ccc(N5CCOCC5)cc4)ccnc3cc2c1 [MMV006861],-26.86
23,CCOC(=O)c1cnc2ccc(Cl)cc2c1NCCCN(C)C [MMV006882],9.75
24,C=CCc1c(C)nc2ccccc2c1O [MMV006913],-48.01
25,O=C(Nc1ccc(-c2nc3cc(NC(=O)c4ccc(Cl)cc4)ccc3[nH]2)cc1)c1ccc(Cl)cc1 [MMV006962],-9.85
